For 2 compounds, Ki results are on record in BindingDB's records for PubMed 11160644 (Merck Frosst Centre For Therapeutic Research, 2001).

For this test, the target named is T1, Solute carrier organic anion transporter family member 1B1 (Homo sapiens, UniProt Q9Y6L6).
T1 sequence (Q9Y6L6 whole entry): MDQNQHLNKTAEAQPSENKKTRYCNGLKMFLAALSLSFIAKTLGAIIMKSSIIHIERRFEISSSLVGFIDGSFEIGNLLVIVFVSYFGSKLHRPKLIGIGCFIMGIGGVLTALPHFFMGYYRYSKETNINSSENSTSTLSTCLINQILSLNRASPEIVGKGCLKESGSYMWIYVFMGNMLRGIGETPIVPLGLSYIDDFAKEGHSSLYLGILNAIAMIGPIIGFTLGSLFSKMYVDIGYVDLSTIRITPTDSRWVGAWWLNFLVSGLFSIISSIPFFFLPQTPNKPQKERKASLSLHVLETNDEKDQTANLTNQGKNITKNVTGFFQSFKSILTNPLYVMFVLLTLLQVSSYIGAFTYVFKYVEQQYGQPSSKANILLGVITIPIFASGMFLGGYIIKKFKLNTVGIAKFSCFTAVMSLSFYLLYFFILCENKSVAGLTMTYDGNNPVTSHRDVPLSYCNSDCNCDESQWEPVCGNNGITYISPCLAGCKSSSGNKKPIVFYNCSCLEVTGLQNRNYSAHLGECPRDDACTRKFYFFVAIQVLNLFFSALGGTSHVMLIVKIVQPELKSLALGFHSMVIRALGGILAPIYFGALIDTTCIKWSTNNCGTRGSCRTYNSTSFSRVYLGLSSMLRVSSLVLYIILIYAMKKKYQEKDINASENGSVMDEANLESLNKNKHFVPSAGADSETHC

Take `Cc1ccc(-c2ncc(Cl)cc2-c2ccc(S(C)(=O)=O)cc2)cn1`: the Ki (as a rule, a dissociation constant, usually derived from enzyme kinetics or from competition with a known ligand) is more than 10000 nM.

The compound `COc1ccc2c(c1)c(CC(=O)O)c(C)n2C(=O)c1ccc(Cl)cc1` [indometacin] showed a Ki of 2 nM.
